Source: patent publication US9493435B2, “IRE-1α inhibitors” (MannKing Corporation, priority 2009, dated 2016)
Counter-ions that a name gives are not always drawn.

Experiments:
[1] = target: human IRE-1α (GST-IRE-1α) (Homo sapiens (Human), UniProt O75460); test: IRE-1α assay (cleavage of mini-XBP-1 mRNA stem-loop substrate); type: biochemical; conditions: average IC50 for inhibition of IRE-1α in vitro
Protocol: A fusion protein comprising glutathione S transferase (GST) and human IRE-1α (GST-IRE-1α) obtained from a 500 ml baculovirus-infected insect cell culture can be used to measure IRE-1α activity in vitro. Five μl of a reaction mixture comprising 1× reaction buffer (5× reaction buffer is 100 mM Hepes pH 7.5, 250 mM KOAc, 2.5 mM MgCl2), 3 mM DTT, and 0.4% polyethylene glycol water is added to each well of 384 well plates. Twenty-five nanoliters of a 1 mM test compound solution are added to test wells. […] Negative control wells contain only reaction mixture and test compound. After spinning the plates at 1200 rpm for 30 seconds, 3 μl of an IRE-1α human mini-XBP-1 mRNA stem-loop substrate [NT] ID NO:1), labeled with the fluorescent dye Cy5 at the [NT] end, are added to each well of a control plate. The plates are again spun at 1200 rpm for 30 seconds. […] The plates are covered with lids and incubated for one hour at 30° C. The plates are then transferred to an […] microplate reader. Data is analyzed using data analysis software, and the percent activity of IRE-1α is calculated.

[2] = test system: IRE-1α-mediated XBP-1 splicing in human myeloma MM.1s cells; test: Cellular XBP-1 splicing assay in myeloma cells (RT-PCR); type: cell-based; conditions: Homo sapiens, MM1.S; average EC50, endogenous XBP-1 splicing in myeloma cells, DTT stress
Protocol: After an additional 45 minutes (2 hours total) with compound and DTT, the cells are harvested with TRIZOL® (a mono-phasic solution of phenol and guanidine isothiocyanate), and total RNA is prepared as directed by the manufacturer (Invitrogen). Human XBP-1 is amplified by RT-PCR with the following primers, which flank the 26 base unconventional intron excised by IRE-1α:
RT-PCR of unstressed (U) cells then generates the upper band. When cells are stressed (S) with the endoplasmic reticulum (ER) stressing agent DTT, IRE-1α is activated due to accumulating unfolded protein and the resulting RT-PCR product is 26 base pairs shorter.
Compounds which pass specificity assays are assayed for cellular EC50 using endogenous XBP-1 splicing in myeloma cells. XBP-1 is regulated through the excision of a 26 nucleotide intron from the XBP-1 mRNA by the highly specific endoribonuclease activity of IRE-1α. […] This splicing event is used to measure IRE-1α activity on XBP-1 mRNA in cells and tissues.
Briefly, compounds are incubated in the presence or absence of an ER stress agent (e.g., DTT), and the ratio of XBP-1u (unspliced) to XBP-1s (spliced) is quantified by RT-PCR.

human IRE-1α (GST-IRE-1α), sequence (O75460 19-977): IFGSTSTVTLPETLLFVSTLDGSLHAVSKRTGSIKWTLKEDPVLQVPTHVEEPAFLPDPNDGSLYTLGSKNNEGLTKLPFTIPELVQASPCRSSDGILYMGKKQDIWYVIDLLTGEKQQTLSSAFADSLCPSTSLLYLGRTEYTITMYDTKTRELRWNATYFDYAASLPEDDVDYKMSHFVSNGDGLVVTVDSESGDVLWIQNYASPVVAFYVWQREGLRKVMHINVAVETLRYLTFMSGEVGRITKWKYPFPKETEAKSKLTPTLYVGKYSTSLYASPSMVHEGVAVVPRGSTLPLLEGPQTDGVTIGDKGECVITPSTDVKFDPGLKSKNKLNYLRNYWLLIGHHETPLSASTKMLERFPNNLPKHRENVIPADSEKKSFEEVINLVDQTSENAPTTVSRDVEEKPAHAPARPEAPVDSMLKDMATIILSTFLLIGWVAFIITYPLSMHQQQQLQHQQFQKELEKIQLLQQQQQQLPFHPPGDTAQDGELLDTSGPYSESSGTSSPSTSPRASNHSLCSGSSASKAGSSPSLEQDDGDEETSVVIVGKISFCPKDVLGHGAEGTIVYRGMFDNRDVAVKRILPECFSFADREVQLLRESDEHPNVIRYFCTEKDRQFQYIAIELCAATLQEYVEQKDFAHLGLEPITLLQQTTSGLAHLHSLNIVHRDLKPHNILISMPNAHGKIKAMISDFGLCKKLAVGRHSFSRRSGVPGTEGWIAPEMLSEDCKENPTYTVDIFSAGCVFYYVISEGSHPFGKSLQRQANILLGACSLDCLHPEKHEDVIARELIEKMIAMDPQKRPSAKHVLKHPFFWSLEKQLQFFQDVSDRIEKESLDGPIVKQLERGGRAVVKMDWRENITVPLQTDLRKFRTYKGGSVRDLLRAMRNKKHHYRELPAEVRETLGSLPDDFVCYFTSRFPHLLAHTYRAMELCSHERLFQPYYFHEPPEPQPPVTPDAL

| SMILES | IC50 [1] | EC50 [2] |
| --- | --- | --- |
| O=Cc1c(O)ccc2cc(-c3ccc(C(=O)N4CCCC4)cc3)ccc12 [Compound 3] | < 1 µM | < 10 µM |
| CCN(CC)C(=O)c1cccc(-c2ccc3c(C=O)c(O)ccc3c2)n1 [Compound 7] | < 1 µM | 10 µM |
| CNC(=O)c1ccc(-c2ccc3c(C=O)c(O)ccc3c2)cc1 [Compound 9] | > 1 µM | > 10 µM |
| COCCNC(=O)c1ccc(-c2ccc3c(C=O)c(O)ccc3c2)cc1 [Compound 10] | < 1 µM | < 10 µM |
| CNC(=O)c1ccc(-c2ccc3c(C=O)c(O)ccc3c2)s1 [Compound 11] | < 1 µM | 10 µM |
| CN(C)C(=O)c1ccc(-c2ccc3c(C=O)c(O)ccc3c2)s1 [Compound 12] | < 1 µM | 10 µM |
| COCCNC(=O)c1ccc(-c2ccc3c(C=O)c(O)ccc3c2)s1 [Compound 15] | < 1 µM | > 10 µM |
| COc1ccc(CNC(=O)c2cccc(-c3ccc4c(C=O)c(O)ccc4c3)n2)cc1 [Compound 17] | < 1 µM | > 10 µM |
| CCOC(=O)/C=C/c1ccc2c(C=O)c(O)ccc2c1 [Compound 22] | < 1 µM | < 10 µM |
| O=Cc1c(O)ccc2cc(/C=C/C(=O)O)ccc12 [Compound 23] | < 1 µM | 10 µM |
| O=Cc1c(O)ccc2cc(-c3cc(C(=O)N4CCOCC4)ccc3Cl)ccc12 [Compound 24] | > 1 µM | > 10 µM |
| CN(C)C(=O)c1ccc(Cl)c(-c2ccc3c(C=O)c(O)ccc3c2)c1 [Compound 26] | > 1 µM | > 10 µM |
| CN1CCN(C(=O)c2ccc(Cl)c(-c3ccc4c(C=O)c(O)ccc4c3)c2)CC1 [Compound 27] | < 1 µM | > 10 µM |
| CN(C)C(=O)c1ccc(-c2ccc3c(C=O)c(O)ccc3c2)c(Cl)c1 [Compound 28] | > 1 µM | > 10 µM |
| O=Cc1c(O)ccc2cc(-c3ccc(C(=O)N4CCOCC4)cc3Cl)ccc12 [Compound 29] | < 1 µM | > 10 µM |
| CN1CCN(C(=O)c2ccc(Cl)c(-c3ccc4c(C=O)c(O)ccc4c3)c2)CC1 [Compound 30] | < 1 µM | – |
| CN1CCC(NC(=O)c2ccc(-c3ccc4c(C=O)c(O)ccc4c3)s2)CC1 [Compound 38] | < 1 µM | < 10 µM |
| O=Cc1c(O)ccc2cc(CCC(=O)O)ccc12 [Compound 39] | < 1 µM | > 10 µM |
| CCOC(=O)CCc1ccc2c(C=O)c(O)ccc2c1 [Compound 40] | > 1 µM | > 10 µM |
| NCCOCCOCCNC(=O)c1ccc(-c2ccc3c(C=O)c(O)ccc3c2)s1 [Compound 45] | < 1 µM | < 10 µM |
| CN1CCN(C(=O)c2ccc(-c3ccc4c(C=O)c(O)ccc4c3)cn2)CC1 [Compound 50] | < 1 µM | < 10 µM |
| CN(C)C(=O)CCc1ccc2c(C=O)c(O)ccc2c1 [Compound 51] | < 1 µM | < 10 µM |
| O=Cc1c(O)ccc2cc(CCC(=O)N3CCOCC3)ccc12 [Compound 52] | < 1 µM | < 10 µM |
| O=Cc1c(O)ccc2cc(-c3ccc(C(=O)N4CCNCC4)s3)ccc12 [Compound 53] | < 1 µM | < 10 µM |
| O=Cc1c(O)ccc2cc(N3CCOCC3)ccc12 [Compound 54] | > 1 µM | > 10 µM |
| NCCN1CCN(C(=O)c2ccc(-c3ccc4c(C=O)c(O)ccc4c3)s2)CC1 [Compound 55] | < 1 µM | < 10 µM |
| CN1CCN(C(=O)c2ccc(-c3ccc4c(C=O)c(O)ccc4c3)nc2)CC1 [Compound 57] | < 1 µM | < 10 µM |
| CN1CCN(c2ccc3c(C=O)c(O)ccc3c2)CC1 [Compound 58, 2-Hydroxy-6-(4-methyl-piperazin-1-yl)-naphthalene-1-carbaldehyde hydrochloride] | > 1 µM | < 10 µM |
| CN(C1CCCN(c2ccc3c(C=O)c(O)ccc3c2)C1)S(C)(=O)=O (stereo not drawn) [Compound 123] | < 1 µM | – |
| CS(=O)(=O)NC1CCN(c2ccc3c(C=O)c(O)ccc3c2)CC1 [Compound 175] | > 1 µM | – |

Further lines, results first:

| IC50 [1] | EC50 [2] | SMILES |
| --- | --- | --- |
| < 0.1 µM | < 10 µM | O=Cc1c(O)ccc2cc(-c3cccc(C(=O)N4CCCC4)c3)ccc12 [Compound 1] |
| < 1 µM | < 10 µM | CCN(CC)C(=O)c1ccc(-c2ccc3c(C=O)c(O)ccc3c2)cc1 [Compound 2] |
| < 0.1 µM | < 10 µM | COCCNC(=O)c1cccc(-c2ccc3c(C=O)c(O)ccc3c2)c1 [Compound 4] |
| < 0.1 µM | < 10 µM | CN1CCN(C(=O)c2ccc(-c3ccc4c(C=O)c(O)ccc4c3)cc2)CC1 [Compound 5] |
| < 0.1 µM | > 10 µM | COCCNC(=O)c1cccc(-c2ccc3c(C=O)c(O)ccc3c2)n1 [Compound 6] |
| < 0.1 µM | < 10 µM | CNC(=O)c1cccc(-c2ccc3c(C=O)c(O)ccc3c2)c1 [Compound 8] |
| < 0.1 µM | > 10 µM | CNC(=O)c1cccc(-c2ccc3c(C=O)c(O)ccc3c2)n1 [Compound 13] |
| < 0.1 µM | < 10 µM | O=Cc1c(O)ccc2cc(-c3cccc(C(=O)N4CCCC4)n3)ccc12 [Compound 14] |
| < 0.1 µM | 10 µM | CCCNC(=O)c1cccc(-c2ccc3c(C=O)c(O)ccc3c2)n1 [Compound 16] |
| < 0.1 µM | > 10 µM | Cc1cc(C(=O)N2CCOCC2)sc1-c1ccc2c(C=O)c(O)ccc2c1 [Compound 25] |
| < 0.1 µM | > 10 µM | CN(C)C(=O)/C=C/c1ccc2c(C=O)c(O)ccc2c1 [Compound 31] |
| < 0.1 µM | < 10 µM | O=Cc1c(O)ccc2cc(/C=C/C(=O)N3CCOCC3)ccc12 [Compound 32] |
| < 0.1 µM | < 10 µM | Cc1cc(C(=O)N(C)C)sc1-c1ccc2c(C=O)c(O)ccc2c1 [Compound 33] |
| < 0.1 µM | < 10 µM | Cc1cc(C(=O)N2CCN(C)CC2)sc1-c1ccc2c(C=O)c(O)ccc2c1 [Compound 34] |
| < 0.1 µM | < 10 µM | CN(C)C(=O)c1ccc(-c2ccc3c(C=O)c(O)ccc3c2)o1 [Compound 35] |
| < 0.1 µM | < 10 µM | O=Cc1c(O)ccc2cc(-c3ccc(C(=O)NCCN4CCOCC4)s3)ccc12 [Compound 36] |
| < 0.1 µM | < 10 µM | O=Cc1c(O)ccc2cc(-c3ccc(C(=O)NCCCN4CCOCC4)s3)ccc12 [Compound 37] |
| < 0.1 µM | < 10 µM | O=Cc1c(O)ccc2cc(-c3ccc(C(=O)NCC4CCCCN4)s3)ccc12 (stereo not drawn) [Compound 41] |
| < 0.1 µM | < 10 µM | O=Cc1c(O)ccc2cc(-c3ccc(C(=O)NCC4CCCNC4)s3)ccc12 (stereo not drawn) [Compound 42] |
| < 0.1 µM | < 10 µM | O=Cc1c(O)ccc2cc(-c3ccc(C(=O)NCC4CCNCC4)s3)ccc12 [Compound 43] |
| < 0.1 µM | < 10 µM | O=Cc1c(O)ccc2cc(-c3ccc(C(=O)NC4CCNCC4)s3)ccc12 [Compound 46] |
| < 0.1 µM | < 10 µM | O=Cc1c(O)ccc2cc(-c3ccc(C(=O)NC4CCCNC4)s3)ccc12 (stereo not drawn) [Compound 47] |
| < 0.1 µM | < 10 µM | O=Cc1c(O)ccc2cc(-c3ccc(C(=O)NC4CCNCC4)cc3)ccc12 [Compound 48] |
| < 0.1 µM | < 10 µM | O=Cc1c(O)ccc2cc(-c3ccc(C(=O)NC4CCCNC4)cc3)ccc12 (stereo not drawn) [Compound 49] |
